The text below walks through data of publication PMC4826192 (Oncotarget, 2015).

The assay deals with MPNST (malignant peripheral nerve sheath tumor) cells. In words: Cell viability assay (Dojindo CCK-8). The conditions noted are these: 72 hours.

Take `Cc1ccc(NC(=O)c2ccc(CN3CCN(C)CC3)cc2)cc1Nc1nccc(-c2cccnc2)n1` [imatinib]: the “anti-proliferative effect, comparison of TKIs” value (500 nmol/L) is recorded as “anti-proliferative effect similar to MGCD516”.
As to `Cc1ccc(Nc2nccc(N(C)c3ccc4c(C)n(C)nc4c3)n2)cc1S(N)(=O)=O` [pazopanib], the “inhibition of MPNST cell proliferation, pazopanib versus MGCD516” value was “similar”.
